Test results taken from patent publication US4500708A, “Benzothiazine derivatives” (G. D. Serle & Co., priority 1984, dated 1985).

Legend:
[1] = Food intake test (food-deprived rats); format: in vivo, Male Sprague-Dawley derived rats
Experimental: (§1) Male Sprague-Dawley derived rats, Charles River Breeders (Portage, MI), weighing between 200-400 grams at the time of testing, were employed in the food intake studies and water intake studies. The rats were housed individually and kept on a 12 hour light-dark light cycle. The room temperature ranged between 23°-25° C.
The rats employed in food intake testing were food deprived on the day preceding testing and were divided into experimental groups that were matched on the basis of average daily food intake and body weight. At approximately 24 hours post-deprivation, the rats were administered a test sample containing as the active ingredient a compound of the present invention. All test samples employed herein were prepared and homogenized in a vehicle of normal saline (to which a few drops of PG/Tween 80 was added). The test samples were administered at an injection volume of 2 ml./kg, unless otherwise stated. Thirty minutes following administration of the test samples, pre-weighed food jars, containing ground meal, were placed in the rats' cages. (Prior to testing the rats were given ground meal for a minimum of 3 days to familiarize the rats with this food.) After 1, 2 and 6 hours of food access, the jars were removed, weighed and returned to the rats' cages providing a 1, 2 and 6 hour intake measurement. The results obtained are represented in Table I. A student t test was used for making statistical comparisons, and the p-values are based upon two-tailed comparisons. The compound employed as the active ingredient of the test sample is indicated by the example number which describes its preparation.

[2] = Water intake test (water-deprived rats); format: in vivo, Male Sprague-Dawley derived rats; conditions: for Water Intake as a % of Control, 15 m: 15 minutes; for Water Intake as a % of Control, 30 m: 30 minutes; for Water Intake as a % of Control, 45 m: 45 minutes; for Water Intake as a % of Control, 60 m: 60 minutes; for Water Intake as a % of Control, 120 m: 120 minutes
Experimental: as §1
The rats employed in water intake testing were water deprived for 1 day and then maintained on a restricted water schedule. Water was available for two hours on the first day post water deprivation and for 1 hour each day afterwards for a minimum of 1 week. Using drinking tubes (50 ml. graduated cylinders), water intake was measured for at least 3 consecutive days prior to testing. On the day preceding testing, rats were divided into different experimental groups that were matched on the basis of avg. 0-15 min. water intake and body weight. On the day of testing, a test sample, containing as the active ingredient the compound prepared in Example 2, was administered. […] Food was removed from the animal at the start of the drinking test. A student t test was used for making statistical comparisons, and the p-values are based upon two-tailed comparisons.

[3] = 32.0 mg/kg i.g., injection volume 3.0 ml./kg
[4] = 75.0 mg/kg i.g., injection volume 3.0 ml./kg

Question: Which “Food Intake % of control, 1 Hr.” value [1, 3] does the source give for `CCCCC(=O)OCn1cc2c(c(-c3ccc(Cl)cc3)c1=O)Nc1ccccc1S2` [Example 3, 4-(4-chlorophenyl)-2-[(1-oxopentoxy)methyl]-5H-pyrido[3,4-b][1,4]benzothiazin-3(2H)-one] here?
Answer: 83.3 % of control

Question: And the “Food Intake % of control, 2 Hr.” value [1, 3]?
Answer: 100.0 % of control

Question: And the “Food Intake % of control, 6 Hr.” value [1, 3]?
Answer: 111.5 % of control

Question: What about the “Food Intake % of control, 1 Hr.” value [1, 4] of the same compound?
Answer: 68.5 % of control

Question: And the “Food Intake % of control, 2 Hr.” value [1, 4]?
Answer: 96.8 % of control

Question: What about the “Food Intake % of control, 6 Hr.” value [1, 4] of the same compound?
Answer: 102.6 % of control

Question: What about the “oral appetite suppressant activity” value [1] of the same compound?
Answer: possess oral appetite suppressant activity

Question: For `O=c1c(-c2ccc(Cl)cc2)c2c(cn1CO)Sc1ccc(Cl)cc1N2` [Example 5, 7-chloro-4-(4-chlorophenyl)-2-(hydroxymethyl)-5H-pyrido[3,4-b][1,4]benzothiazin-3(2H)-one], which “Food Intake % of control, 1 Hr.” value ([1]; 75.0 mg/kg i.g.) is on record?
Answer: 89.9 % of control

Question: What about the “Food Intake % of control, 2 Hr.” value ([1]; 75.0 mg/kg i.g.) of the same compound?
Answer: 96.1 % of control

Question: And the “Food Intake % of control, 6 Hr.” value ([1]; 75.0 mg/kg i.g.)?
Answer: 83.1 % of control

Question: Which “Food Intake % of control, 1 Hr.” value ([1]; 10.0 mg/kg i.g.) does the source give for `O=c1c(-c2ccc(Cl)cc2)c2c(cn1CO)Sc1ccccc1N2` [Example 1, 4-(4-chlorophenyl)-2-(hydroxymethyl)-5H-pyrido[3,4-b][1,4]benzothiazin-3(2H)-one] here?
Answer: 109.8 % of control

Question: What about the “Food Intake % of control, 2 Hr.” value ([1]; 10.0 mg/kg i.g.) of the same compound?
Answer: 104.5 % of control

Question: What about the “Food Intake % of control, 6 Hr.” value ([1]; 10.0 mg/kg i.g.) of the same compound?
Answer: 92.1 % of control

Question: And the “Food Intake % of control, 1 Hr.” value ([1]; 32.0 mg/kg i.g.)?
Answer: 90.2 % of control

Question: And the “Food Intake % of control, 2 Hr.” value ([1]; 32.0 mg/kg i.g.)?
Answer: 86.6 % of control

Question: What about the “Food Intake % of control, 6 Hr.” value ([1]; 32.0 mg/kg i.g.) of the same compound?
Answer: 86.5 % of control

Question: And the “oral appetite suppressant activity” value [1]?
Answer: possess oral appetite suppressant activity

Question: With `CCCC(=O)OCn1cc2c(c(-c3ccc(Cl)cc3)c1=O)Nc1ccccc1S2` [Example 2, 4-(4-chlorophenyl)-2-[(1-oxobutoxy)methyl]-5H-pyrido[3,4-b][1,4]benzothiazin-3-(2H)-one] as the compound, how does the “Water Intake as a % of Control, 15 m” value ([2]; 10.0 mg/kg i.g.) read?
Answer: 96.4 % of Control

Question: What about the “Water Intake as a % of Control, 30 m” value ([2]; 10.0 mg/kg i.g.) of the same compound?
Answer: 98.3 % of Control

Question: What about the “Water Intake as a % of Control, 45 m” value ([2]; 10.0 mg/kg i.g.) of the same compound?
Answer: 99.2 % of Control

Question: And the “Water Intake as a % of Control, 60 m” value ([2]; 10.0 mg/kg i.g.)?
Answer: 100.0 % of Control

Question: What about the “Water Intake as a % of Control, 120 m” value ([2]; 10.0 mg/kg i.g.) of the same compound?
Answer: 103.7 % of Control

Question: What about the “Water Intake as a % of Control, 15 m” value ([2]; 18.0 mg/kg i.g.) of the same compound?
Answer: 89.2 % of Control

Question: And the “Water Intake as a % of Control, 30 m” value ([2]; 18.0 mg/kg i.g.)?
Answer: 89.1 % of Control

Question: What about the “Water Intake as a % of Control, 45 m” value ([2]; 18.0 mg/kg i.g.) of the same compound?
Answer: 88.6 % of Control

Question: What about the “Water Intake as a % of Control, 60 m” value ([2]; 18.0 mg/kg i.g.) of the same compound?
Answer: 92.0 % of Control

Question: And the “Water Intake as a % of Control, 120 m” value ([2]; 18.0 mg/kg i.g.)?
Answer: 94.8 % of Control

Question: What about the “Water Intake as a % of Control, 15 m” value ([2]; 32.0 mg/kg i.g.) of the same compound?
Answer: 64.9 % of Control

Question: And the “Water Intake as a % of Control, 30 m” value ([2]; 32.0 mg/kg i.g.)?
Answer: 69.7 % of Control

Question: What about the “Water Intake as a % of Control, 45 m” value ([2]; 32.0 mg/kg i.g.) of the same compound?
Answer: 70.7 % of Control

Question: And the “Water Intake as a % of Control, 60 m” value ([2]; 32.0 mg/kg i.g.)?
Answer: 75.2 % of Control

Question: And the “Water Intake as a % of Control, 120 m” value ([2]; 32.0 mg/kg i.g.)?
Answer: 79.3 % of Control

Question: And the “Food Intake % of control, 1 Hr.” value ([1]; 1.0 mg/kg i.p.)?
Answer: 87.9 % of control

Question: What about the “Food Intake % of control, 2 Hr.” value ([1]; 1.0 mg/kg i.p.) of the same compound?
Answer: 90.9 % of control

Question: What about the “Food Intake % of control, 6 Hr.” value ([1]; 1.0 mg/kg i.p.) of the same compound?
Answer: 100.0 % of control

Question: What about the “Food Intake % of control, 1 Hr.” value ([1]; 3.2 mg/kg i.p.) of the same compound?
Answer: 57.6 % of control

Question: And the “Food Intake % of control, 2 Hr.” value ([1]; 3.2 mg/kg i.p.)?
Answer: 76.6 % of control

Question: And the “Food Intake % of control, 6 Hr.” value ([1]; 3.2 mg/kg i.p.)?
Answer: 91.0 % of control

Question: And the “Food Intake % of control, 1 Hr.” value ([1]; 10.0 mg/kg i.g.)?
Answer: 85.7 % of control

Question: And the “Food Intake % of control, 2 Hr.” value ([1]; 10.0 mg/kg i.g.)?
Answer: 93.6 % of control

Question: What about the “Food Intake % of control, 6 Hr.” value ([1]; 10.0 mg/kg i.g.) of the same compound?
Answer: 92.5 % of control

Question: And the “Food Intake % of control, 1 Hr.” value ([1]; 10.0 mg/kg i.p.)?
Answer: 39.4 % of control

Question: And the “Food Intake % of control, 2 Hr.” value ([1]; 10.0 mg/kg i.p.)?
Answer: 61.0 % of control

Question: And the “Food Intake % of control, 6 Hr.” value ([1]; 10.0 mg/kg i.p.)?
Answer: 88.1 % of control

Question: And the “Food Intake % of control, 1 Hr.” value ([1]; 32.0 mg/kg i.g.)?
Answer: 57.1 % of control

Question: And the “Food Intake % of control, 2 Hr.” value ([1]; 32.0 mg/kg i.g.)?
Answer: 74.4 % of control

Question: And the “Food Intake % of control, 6 Hr.” value ([1]; 32.0 mg/kg i.g.)?
Answer: 87.9 % of control

Question: What about the “Food Intake % of control, 1 Hr.” value ([1]; 32.0 mg/kg i.p.) of the same compound?
Answer: 30.3 % of control

Question: And the “Food Intake % of control, 2 Hr.” value ([1]; 32.0 mg/kg i.p.)?
Answer: 40.3 % of control

Question: What about the “Food Intake % of control, 6 Hr.” value ([1]; 32.0 mg/kg i.p.) of the same compound?
Answer: 70.3 % of control

Question: And the “oral appetite suppressant activity” value [1]?
Answer: possess oral appetite suppressant activity

Question: Which results are given for `CC(C)(C)C(=O)OCn1cc2c(c(-c3ccc(Cl)cc3)c1=O)Nc1ccccc1S2` [Example 9, 4-(4-chlorophenyl)-2-[(2,2-dimethyl-1-oxopropoxy)methyl]-5H-pyrido[3,4-b][1,4]benzothiazin-3(2H)-one]?
Answer: Food Intake % of control, 1 Hr. ([1]; 10.0 mg/kg i.g.): 111.1 % of control; Food Intake % of control, 2 Hr. ([1]; 10.0 mg/kg i.g.): 102.6 % of control; Food Intake % of control, 6 Hr. ([1]; 10.0 mg/kg i.g.): 96.3 % of control; Food Intake % of control, 1 Hr. ([1]; 32.0 mg/kg i.g.): 111.1 % of control; Food Intake % of control, 2 Hr. ([1]; 32.0 mg/kg i.g.): 106.4 % of control; Food Intake % of control, 6 Hr. ([1]; 32.0 mg/kg i.g.): 92.5 % of control
